Laboratory results reported in patent publication US8119661B2, “Piperidine derivatives and their use as muscarinic receptor modulators” (AstraZeneca AB, priority 2007, dated 2012).
pEC50: −log10 of the molar value.

What was measured:
[1] = biological target: T1, hM3 (human Muscarinic receptor subtype 3) (Homo sapiens, UniProt P20309); assay: Human M3 calcium mobilization FLIPR assay; type: cell-based; conditions: CHO cells expressing hM3, intracellular Ca2+ release
T1 construct: expressed in transfected cells; host or cells: CHO cells (Chinese hamster ovary cells, ATCC)
Description: (§1) The compound activity in the present invention (EC50 or IC50) is measured using a 384 plate-based imaging assay that monitors drug induced intracellular Ca^2+ release in whole cells. Activation of hM1 (human Muscarinic receptor subtype 1, gene bank access NM_000738), rM1 (rat Muscarinic receptor subtype 1, gene bank access NM_080773), hM3 (human Muscarinic receptor subtype 3, gene bank access NM_000740NM_000740) and hM5 (human Muscarinic receptor subtype 5, gene bank access NM_0121258), receptors expressed in CHO cells (Chinese hamster ovary cells, ATCC) is quantified in a Molecular Devices FLIPR II™ instrument as an increase in fluorescent signal. Inhibition of hM3 and hM5 by compounds is determined by the decrease in fluorescent signal in response to 2 nM acetylcholine activation.
(§2) Prior to experiment, the cell culture medium is removed from the plates by inversion. […] Plates are incubated at 37° C. for 60 minutes prior to start the experiment. The incubation is terminated by washing the cells four times in assay buffer, leaving a residual 25 μl buffer per well. Cell plates are then transferred to the FLIPR, ready for compound additions.
(§3) The day of experiment, acetylcholine and compounds are diluted in assay buffer in three-fold concentration range (10 points serial dilution) for addition by FLIPR instrument. For all calcium assays, a baseline reading is taken for 10 seconds followed by the addition of 12.5 μl of compounds, resulting in a total well volume of 37.5 μl. Data is collected every second for 60 pictures and then every 6 seconds for 20 pictures prior to the addition of agonist. For hM3 and hM5, before agonist addition, a second baseline reading is taken for 10 seconds followed by the addition of 12.5 μl of agonist or buffer, producing a final volume of 50 μl. After agonist stimulation, the FLIPR continues to collect data every second for 60 pictures and then every 6 seconds for 20 pictures. The fluorescence emission is read using filter 1 (emission 510-570 nm) by the FLIPR on board CCD camera.
(§4) Calcium mobilization output data are calculated as the maximal relative fluorescence unit (RFU) minus the minimal value for both compound and agonist reading frame (except for hM1 and rM1 using only the maximal RFU). Data are analyzed using sigmoidal fits of a non-linear curve-fitting program (XLfit version 4.2.2 Excel add-in version 4.2.2 build 18 math 1Q version 2.1.2 build 18). All pEC50 and pIC50 values are reported as arithmetic means±standard error of mean of ‘n’ independent experiments.

cloned human M4 receptor = biological target: T2, cloned human M4 receptor (Homo sapiens, UniProt P08173); assay: hM4 receptor GTPγS binding; type: biochemical; conditions: CHO membranes expressing hM4, [35S]GTPγS binding
T2 construct: purchased Perkin-Elmer RBHM4M; host or cells: CHO cell membranes
T2 sequence (P08173 1-479): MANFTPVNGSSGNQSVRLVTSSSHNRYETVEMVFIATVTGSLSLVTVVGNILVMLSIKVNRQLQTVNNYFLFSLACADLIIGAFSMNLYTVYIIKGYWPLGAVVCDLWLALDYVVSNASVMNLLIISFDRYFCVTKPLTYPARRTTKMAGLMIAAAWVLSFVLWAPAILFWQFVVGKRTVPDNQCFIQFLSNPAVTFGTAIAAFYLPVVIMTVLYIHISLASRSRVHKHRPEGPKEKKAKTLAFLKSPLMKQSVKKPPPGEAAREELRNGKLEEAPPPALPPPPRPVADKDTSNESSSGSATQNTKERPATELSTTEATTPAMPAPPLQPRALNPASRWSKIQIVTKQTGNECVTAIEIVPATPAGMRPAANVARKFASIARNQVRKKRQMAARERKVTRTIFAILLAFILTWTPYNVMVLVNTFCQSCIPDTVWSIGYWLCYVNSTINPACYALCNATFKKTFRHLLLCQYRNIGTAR
Description: Membranes produced from Chinese hamster ovary cells (CHO) expressing the cloned human M4 receptor (human Muscarinic receptor subtype 4, gene bank access NM_000741), are obtained from Perkin-Elmer (RBHM4M). The membranes are thawed at 37° C., passed 3 times through a 23-gauge blunt-end needle, diluted in the GTPγS binding buffer (50 mM Hepes, 20 mM NaOH, 100 mM NaCl, 1 mM EDTA, 5 mM MgCl2, pH 7.4, 100 μM DTT). The EC50, IC50 and Emax of the compounds of the invention are evaluated from 10-point dose-response curves (three fold concentration range) done in 60 μl in 384-well non-specific binding surface plate (Corning). Ten microliters from the dose-response curves plate (5× concentration) are transferred to another 384 well plate containing 25 μl of the following: 10 μg of hM4 membranes, 500 μg of Flashblue beads (Perkin-Elmer) and GDP 40 μM. An additional 15 μl containing 3.3× (60,000 dpm) of GTPγ^35S (0.4 nM final) are added to the wells resulting in a total well volume of 50 μl. Basal and maximal stimulated [^35S]GTPγS binding are determined in absence and presence of 30 μM final of acetylcholine agonist. The membranes/beads mix are pre-incubated for 15 minutes at room temperature with 40 μM GDP prior to distribution in plates (20 μM final). The reversal of acetylcholine-induced stimulation (10 μM final) of [^35S]GTPγS binding is used to assay the antagonist properties (IC50) of the compounds. The plates are incubated for 60 minutes at room temperature then centrifuged at 400 rpm for 5 minutes. The radioactivity (cpm) is counted in a Trilux (Perkin-Elmer).
Values of EC50, IC50 and Emax are obtained using sigmoidal fits of a non-linear curve-fitting program (XLfit version 4.2.2 Excel add-in version 4.2.2 build 18 math 1Q version 2.1.2 build 18) of percent stimulated [^35S]GTPγS binding vs. log(molar ligand). All pEC50 and pIC50 values are reported as arithmetic means±standard error of mean of ‘n’ independent experiments.

[2] = biological target: T3, hM1 (human Muscarinic receptor subtype 1) (Homo sapiens, UniProt P11229); assay: Human M1 calcium mobilization FLIPR assay; type: cell-based; conditions: CHO cells expressing hM1, intracellular Ca2+ release
T3 construct: expressed in transfected cells; host or cells: CHO cells (Chinese hamster ovary cells, ATCC)
T3 sequence (P11229 1-460): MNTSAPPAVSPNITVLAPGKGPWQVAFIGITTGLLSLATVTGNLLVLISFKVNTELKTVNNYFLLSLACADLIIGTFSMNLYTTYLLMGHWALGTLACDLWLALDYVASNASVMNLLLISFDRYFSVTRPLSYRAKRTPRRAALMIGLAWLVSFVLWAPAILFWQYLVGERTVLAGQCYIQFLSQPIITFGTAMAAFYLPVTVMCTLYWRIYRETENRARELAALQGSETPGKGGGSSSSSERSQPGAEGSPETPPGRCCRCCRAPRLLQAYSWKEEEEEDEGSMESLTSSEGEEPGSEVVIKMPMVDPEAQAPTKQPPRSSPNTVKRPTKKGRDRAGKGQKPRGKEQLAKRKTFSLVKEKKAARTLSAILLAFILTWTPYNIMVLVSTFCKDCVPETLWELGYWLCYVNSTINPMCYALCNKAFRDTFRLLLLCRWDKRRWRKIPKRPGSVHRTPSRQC
Description: as §1, §2, §3, §4

T1 sequence (P20309 whole entry): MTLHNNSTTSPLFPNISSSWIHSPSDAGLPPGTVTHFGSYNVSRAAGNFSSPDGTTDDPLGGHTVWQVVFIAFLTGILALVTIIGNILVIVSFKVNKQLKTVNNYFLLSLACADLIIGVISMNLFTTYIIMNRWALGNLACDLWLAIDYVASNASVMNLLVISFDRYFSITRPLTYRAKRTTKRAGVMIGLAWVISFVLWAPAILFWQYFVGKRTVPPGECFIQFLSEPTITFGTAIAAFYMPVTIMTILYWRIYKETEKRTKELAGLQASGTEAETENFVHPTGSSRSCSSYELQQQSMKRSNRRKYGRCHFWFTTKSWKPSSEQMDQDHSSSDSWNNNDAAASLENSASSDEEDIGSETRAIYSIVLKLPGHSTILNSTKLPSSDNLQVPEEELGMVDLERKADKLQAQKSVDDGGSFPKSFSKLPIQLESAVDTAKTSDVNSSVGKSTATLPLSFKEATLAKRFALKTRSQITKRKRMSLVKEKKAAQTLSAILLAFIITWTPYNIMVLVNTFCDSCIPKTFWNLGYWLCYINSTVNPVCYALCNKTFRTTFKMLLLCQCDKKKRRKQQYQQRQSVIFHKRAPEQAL

| SMILES | pEC50 [1] | pEC50 (cloned human M4 receptor) | pEC50 [2] |
| --- | --- | --- | --- |
| CC(C)OC(=O)N1CCC(C)(N2CCC(N3C(=O)N[C@@H]4CCCC[C@H]43)CC2)CC1 [Example 05, Propan-2-yl 4-[4-[(3aR,7aR)-2-oxo-3a,4,5,6,7,7a-hexahydro-3H-benzoimidazol-1-yl]-1-piperidyl]-4-methyl-piperidine-1-carboxylate] | < 4.31 | < 4.52 | 7.60 |
| CC1(N2CCC(N3C(=O)N[C@@H]4CCCC[C@H]43)CC2)CCN(C(=O)C2CC2)CC1 [Example 06, (3aR,7aR)-1-[1-[1-(cyclopropanecarbonyl)-4-methyl-4-piperidyl]-4-piperidyl]-3a,4,5,6,7,7a-hexahydro-3H-benzoimidazol-2-one] | < 4.31 | < 4.52 | 7.29 |
| CCC(=O)N1CCC(C)(N2CCC(N3C(=O)N[C@H]4CCCC[C@@H]43)CC2)CC1 [Example 18, (3aS,7aS)-3-[1-(4-methyl-1-propanoyl-4-piperidyl)-4-piperidyl]-3a,4,5,6,7,7a-hexahydro-1H-benzimidazol-2-one] | < 4.40 | < 4.52 | 7.18 |

Now from value to compound:

| pEC50 [1] | pEC50 (cloned human M4 receptor) | pEC50 [2] | SMILES |
| --- | --- | --- | --- |
| < 5.38 | < 5.21 | 8.48 | CCOC(=O)N1CCC(C)(N2CCC(N3C(=O)N[C@@H]4CCCC[C@H]43)CC2)CC1 [Example 04, Ethyl 4-[4-[(3aR,7aR)-2-oxo-3a,4,5,6,7,7a-hexahydro-3H-benzoimidazol-1-yl]-1-piperidyl]-4-methyl-piperidine-1-carboxylate] |
| < 4.40 | < 4.52 | 7.72 | CC(C)OC(=O)N1CCC(C)(N2CCC(N3C(=O)C[C@H]4CCCC[C@@H]43)CC2)CC1 [Example 14, Propan-2-yl 4-[4-[(3aR,7aS)-2-oxo-3a,4,5,6,7,7a-hexahydro-3H-indol-1-yl]-1-piperidyl]-4-methyl-piperidine-1-carboxylate] |
| < 4.40 | < 4.52 | 7.44 | CC1(N2CCC(N3C(=O)C[C@H]4CCCC[C@@H]43)CC2)CCN(C(=O)C2CC2)CC1 [Example 15, (3aR,7aS)-1-[1-[1-(cyclopropanecarbonyl)-4-methyl-4-piperidyl]-4-piperidyl]-3a,4,5,6,7,7a-hexahydro-3H-indol-2-one] |
| < 4.40 | < 4.05 | 8.44 | CC#CCOC(=O)N1CCC(C)(N2CCC(N3C(=O)N[C@H]4CCCC[C@@H]43)CC2)CC1 [Example 16, But-2-ynyl 4-[4-[(3aS,7aS)-2-oxo-3a,4,5,6,7,7a-hexahydro-3H-benzimidazol-1-yl]-1-piperidyl]-4-methyl-piperidine-1-carboxylate] |
